Test results reported in patent publication US20110045033A1, “Combination of Itriglumide and Proton Pump Inhibitors in the Treatment of Gastrointestinal and Related Disorders” (priority 2005, published 2011).

Legend:
[1] = tested on: acute reflux esophagitis in pylorus-ligated rats; test: Acute reflux esophagitis in pylorus-ligated rats (macroscopic lesion index); type: in vivo, rat; parameters: key to Average Score lesions: lesion index 0 = no lesion to 6 = hemorrhage >40 mm or perforation; conditions: for % Effect vs. control / Average Score lesions: 3 h after ligation; for ED50: Rattus norvegicus, intraduodenal, drug administered separately, intraduodenally, from dose-response regression line, read-out: ED50 (dose which reduces of 50% the esophagus lesions)
Protocol: Male rats of 175-200 g body weight were fasted for 24 hours prior the experiment. Water was allowed ad libitum. Under ether anaesthesia, the abdomen was incised along the midline, and both pylorus and limiting ridge (transitional region between the forestomach and corpus) were simultaneously ligated. Consequently, the total capacity of the stomach to hold gastric juice was greatly diminished, resulting in reflux of gastric juice into the esophagus. Following ligation of pylorus and limiting ridge, the test compounds were given intraduodenally (5 ml/kg), and the abdomen was closed by suturing. After 3 hours, rats were killed by ether overdose and the gastroesophageal portion was excised. The lesion in the thoracic esophagus was scored macroscopically, using a lesion index according to the following criteria: no lesion as 0; oedema as 1; reddening as 2; the length of hemorrhagic area <20 mm as 3; the length of hemorrhagic area 20-30 mm as 4; the length of hemorrhagic area 30-40 mm as 5; the length of hemorrhagic area >40 mm or perforation as 6.
The doses of the tested compounds which reduce of 50% the esophagus lesions (ED50) were calculated from the dose-response regression line.

[2] = tested on: chronic model of reflux esophagitis in rats; test: Chronic acid reflux esophagitis in rat (forestomach ligation and pyloric stenosis); type: in vivo; conditions: 15 days; for Occurrence of Esophagitis: animals affected/surviving
Text: The method was according to Omura N., et al. (Scand. J gastroenterol. 1999; 34:948-953) with slight modifications.
Male Wistar rats, 10 weeks old, were kept in controlled animal room 1 week prior to use and fed with standard diet. A day before the experiment rats were deprived of food but allowed free access to water.
This model consists of gastric outlet obstruction obtained by ligation of forestomach and pyloric stenosis. Rats were operated under air/halothane anaesthesia; after opening the abdomen with a median incision, the transitional region between forestomach and the glandular portion was ligated and then the forestomach was blocked with other two ligations. Pyloric stenosis were obtained by wrapping a duodenum near the pylorus with a piece (about 2 mm) of a catheter (3.5 mm inner diameter) as a ring. The ring was closed by thermocautery and fixed to the pylorus with a nylon thread. The abdomen was closed by suturing.
After the operation the rats (10 animals per group) were deprived of diet for 48 h but had free access to water.
Drugs were administered once a day, starting on day zero, by subcutaneous injection. During the experiment body weight as well as the mortality were recorded.
The animals were killed 15 days later by overdose of ether inhalation. The abdomen was opened and the esophagus excised and placed on a cork plate. The presence and extension of esophagitis sites was evaluated by macroscopic observation. Each site of esophagitis was measured (mm of length×mm of width). Data were expressed as mm^2 of esophagitis area (mean area group).

[3] = Itriglumide 2.5 mg/kg intraduodenally
[4] = Itriglumide 5.0 mg/kg intraduodenally
[5] = Itriglumide 10 mg/kg intraduodenally
[6] = Itriglumide 20 mg/kg intraduodenally
[7] = Itriglumide 10 mg/kg s.c. once a day
[8] = Omeprazole 0.1 mg/kg intraduodenally
[9] = Omeprazole 0.3 mg/kg intraduodenally
[10] = Omeprazole 1.0 mg/kg intraduodenally
[11] = Omeprazole 3.0 mg/kg intraduodenally
[12] = Omeprazole 0.5 mg/kg s.c. once a day
[13] = Omeprazole 1 mg/kg s.c. once a day
[14] = Omeprazole 2 mg/kg s.c. once a day

## Cc1cc(C)c(NC(=O)C[C@H](CC(=O)O)c2cccc3ccccc23)c(C(=O)N2CCC3(CCCC3)CC2)c1 [Itriglumide, (R)-1-napthalenepropanoic acid-β[2[(2-(8-azaspiro[4.5.]dec-8-ylcarbonyl)4,6-dimethylphenyl]amino]-2-oxoethyl]]
[1]; [3]
  % Effect vs. control: 0%
  Average Score lesions: 5.2
[1]; [4]
  % Effect vs. control: 27.5%
  Average Score lesions: 3.7
[1]; [5]
  % Effect vs. control: 51.0%
  Average Score lesions: 2.5
[1]; [6]
  % Effect vs. control: 82.3%
  Average Score lesions: 0.9
[1]
  ED50: 9.1 mg/kg
[2]; [7]
  % Protection vs. control: 42.1%
  Survival Rate (%): 90%
  Total average size of ulcers (mm^2): 33 mm^2
  Occurrence of Esophagitis: 4/9

## COc1ccc2[nH]c([S+]([O-])Cc3ncc(C)c(OC)c3C)nc2c1 (centres unmarked) [Omeprazole]
[1]; [8]
  % Effect vs. control: 3.4%
  Average Score lesions: 5.6
[1]; [9]
  % Effect vs. control: 0%
  Average Score lesions: 5.8
[1]; [10]
  % Effect vs. control: 17.2%
  Average Score lesions: 4.8
[1]; [11]
  % Effect vs. control: 53.4%
  Average Score lesions: 2.7
[1]
  ED50: 4.9 mg/kg
[2]; [12]
  % Protection vs. control: 17.5%
  Survival Rate (%): 80%
  Total average size of ulcers (mm^2): 47 mm^2
  Occurrence of Esophagitis: 6/8
[2]; [13]
  % Protection vs. control: 28.0%
  Survival Rate (%): 90%
  Total average size of ulcers (mm^2): 41 mm^2
  Occurrence of Esophagitis: 6/9
[2]; [14]
  % Protection vs. control: 49.1%
  Survival Rate (%): 90%
  Total average size of ulcers (mm^2): 29 mm^2
  Occurrence of Esophagitis: 3/9
[2]; Rattus norvegicus, sc, 360 h, Omeprazole alone, s.c. once a day
  ED50: 2.2 mg/kg
